A short description of data set [1]: 65Zn level in blood of rats after oral gavage, scintillation count. To be noted: oral 0.03 mg Zn, 15 μcuries 65Zn, mean ± standard deviation. How it is done:
(§1) The chelate thus prepared was diluted such that a 5 μl dose contained about 0.03 mg Zn and 15 μcuries of ^65 Zn activity. This dose, when administered to a standard laboratory rat weighing 150±25 gms, closely approximates the RDA of 15 mg Zn for a human being weighing about 70 kg.
(§2) Ten Sprague Dawley rats, weighing 190±10 grams each were divided into two groups of five rats. Five rats were designated the test group and the other five rats the control group.
(§3) No surgery was performed as all animals were given light doses of nembutal (40 mg/kg) to improve ease of handling and minimize injury during lavage and bloodletting.
Beginning 30 minutes after dosing and continuing at 30 minute intervals up to a period of 3 hours following dosing, 0.1 ml of blood was withdrawn from rats in both the test and control groups. The blood was then analyzed for ^65 Zn by scintillation count.

The nature of data set [2]: 65Zn isotope levels in urine and tissues of sacrificed rats. On the procedure: as §1, §2, §3
The rats used in Example 22 were sacrificed after completion of the testing and the urine, liver, muscle, kidney, brain and spleens from the animals in each grouping were collected for comparative ^65 zinc isotope levels.

These results are taken from patent US5292729A, “II-bond aromatic vitamin chelates” (Albion International, Inc., priority 1992, dated 1994).

The structures appear in SMILES notation.

`[Cl-].[Cl-].[Zn+2]` [ZnCl2]: the 65Zn in blood is 210 ± 11 CCPM in data set [1] (0.5 hrs after dosing); 226 ± 14 CCPM in data set [1] (1.0 hrs after dosing); 212 ± 26 CCPM in data set [1] (1.5 hrs after dosing); 206 ± 8 CCPM in data set [1] (2.5 hrs after dosing); 207 ± 8 CCPM in data set [1] (3.0 hrs after dosing). In data set [2] (brain, after 3 hour test), this compound came in with a 65Zn in brain of 0 CCPM. In addition, the 65Zn in kidney in data set [2] (kidney, after 3 hour test) came out at 24 CCPM. This compound also yielded a 65Zn in liver in data set [2] (liver, after 3 hour test) of 50 CCPM. This compound also had a 65Zn in muscle in data set [2] (muscle, after 3 hour test) of 0 CCPM. In data set [2] (spleen, after 3 hour test), this compound displayed a 65Zn in spleen of 16 CCPM. In data set [2] (urine), the “excretion of zinc compared with the chelated form” value is recorded as “excreted more readily”. Further, the 65Zn in urine in data set [2] (urine, after 3 hour test) is on record as 38 CCPM.
